Assays:
[1] = target: Epithelial discoidin domain-containing receptor 1 (Homo sapiens, UniProt Q08345); assay: LanthaScreen Eu Kinase Activity Assay; details: pH 7.5; 25 °C
Procedure: (§1) The effects of compounds on the kinases DDR1 and DDR2 were assessed by using a LanthaScreen Eu kinase activity assay technology (Invitrogen, Carlsbad, CA, USA). […] Reaction buffer for the kinase reaction consists of 50 mm HEPES pH 7.5, 0.01% BRIJ-35, 10 mm MgCl2, and 1 mm EGTA. The concentration of fluorescein-polyGAT substrate (Invitrogen) in the assay was […] reactions were initiated with the addition of […] in the presence of serial dilutions of compounds. The reactions were allowed to proceed for 1 hour at room temperature before a 10 μL preparation of EDTA (20 mm) and Eu-labeled antibody (4 nm) in TR-FRET dilution buffer was added. The final concentration of antibody in the assay well was 2 nm, and the final concentration of EDTA was 10 mm.

[2] = target: T1, Discoidin domain-containing receptor 2 (Homo sapiens, UniProt Q16832); assay: LanthaScreen Eu Kinase Activity Assay; details: pH 7.5; 25 °C
T1 sequence (Q16832 whole entry): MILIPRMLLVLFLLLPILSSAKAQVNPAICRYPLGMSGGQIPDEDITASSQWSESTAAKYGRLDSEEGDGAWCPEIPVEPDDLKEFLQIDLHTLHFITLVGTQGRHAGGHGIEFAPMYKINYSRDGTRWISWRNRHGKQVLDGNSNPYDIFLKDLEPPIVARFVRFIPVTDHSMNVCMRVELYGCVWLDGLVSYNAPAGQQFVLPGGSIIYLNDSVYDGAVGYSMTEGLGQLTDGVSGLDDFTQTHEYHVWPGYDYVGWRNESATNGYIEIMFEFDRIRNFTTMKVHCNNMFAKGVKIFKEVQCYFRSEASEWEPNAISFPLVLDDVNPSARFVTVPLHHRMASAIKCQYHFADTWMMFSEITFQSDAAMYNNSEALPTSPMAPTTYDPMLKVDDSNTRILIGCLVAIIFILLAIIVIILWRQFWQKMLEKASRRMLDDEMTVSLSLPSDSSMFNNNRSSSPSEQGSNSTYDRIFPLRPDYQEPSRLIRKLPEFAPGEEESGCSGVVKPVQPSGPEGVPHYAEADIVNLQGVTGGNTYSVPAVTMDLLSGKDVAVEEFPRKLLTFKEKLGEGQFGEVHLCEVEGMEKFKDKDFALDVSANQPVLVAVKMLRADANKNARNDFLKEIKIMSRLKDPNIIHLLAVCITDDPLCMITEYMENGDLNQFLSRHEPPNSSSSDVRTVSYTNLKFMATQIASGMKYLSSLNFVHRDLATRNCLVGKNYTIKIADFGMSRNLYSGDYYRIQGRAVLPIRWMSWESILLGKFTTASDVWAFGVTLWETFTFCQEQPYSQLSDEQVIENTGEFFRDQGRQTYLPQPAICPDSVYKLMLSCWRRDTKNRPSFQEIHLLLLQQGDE
Procedure: as §1

Sequence of Epithelial discoidin domain-containing receptor 1 (Q08345 whole entry, the tested form may be a part): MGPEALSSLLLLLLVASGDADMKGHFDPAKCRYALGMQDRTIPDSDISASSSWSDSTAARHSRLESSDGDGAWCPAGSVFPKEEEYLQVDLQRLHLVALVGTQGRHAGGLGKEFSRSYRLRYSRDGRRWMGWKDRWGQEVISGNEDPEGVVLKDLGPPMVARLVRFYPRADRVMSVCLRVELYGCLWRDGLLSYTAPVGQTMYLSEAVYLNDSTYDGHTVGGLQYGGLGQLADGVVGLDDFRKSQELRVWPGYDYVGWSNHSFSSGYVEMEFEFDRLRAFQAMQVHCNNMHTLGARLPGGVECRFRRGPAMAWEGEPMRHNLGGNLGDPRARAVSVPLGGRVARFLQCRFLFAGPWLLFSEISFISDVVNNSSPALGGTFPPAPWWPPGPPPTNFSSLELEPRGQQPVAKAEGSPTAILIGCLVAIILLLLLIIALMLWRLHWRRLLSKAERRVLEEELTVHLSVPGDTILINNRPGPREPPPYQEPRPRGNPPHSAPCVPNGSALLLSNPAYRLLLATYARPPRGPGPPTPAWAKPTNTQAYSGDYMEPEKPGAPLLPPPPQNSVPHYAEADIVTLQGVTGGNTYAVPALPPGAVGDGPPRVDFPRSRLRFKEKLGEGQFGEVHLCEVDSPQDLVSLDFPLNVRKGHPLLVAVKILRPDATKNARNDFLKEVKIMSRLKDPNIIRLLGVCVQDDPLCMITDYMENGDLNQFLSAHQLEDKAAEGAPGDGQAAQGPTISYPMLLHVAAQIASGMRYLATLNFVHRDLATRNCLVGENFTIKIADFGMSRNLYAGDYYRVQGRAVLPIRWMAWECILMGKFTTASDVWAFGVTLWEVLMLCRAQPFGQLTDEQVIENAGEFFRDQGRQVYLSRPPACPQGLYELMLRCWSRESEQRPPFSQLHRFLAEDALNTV

Compound | IC50 [1] [µM] | IC50 [2] [µM]
Cc1nc(Nc2ncc(C(=O)Nc3c(C)cccc3Cl)s2)cc(N2CCN(C(=O)Oc3ccccc3)CC2)n1 [Phenyl 4-(6-((5-((2-chloro-6-methylphenyl)carbamoyl)thiazol-2-yl)amino)-2-methylpyrimidin-4-yl)-piperazine-1-carboxylate (3g)] | 0.00714 | 0.0213
Cc1nc(Nc2ncc(C(=O)Nc3c(C)cccc3Cl)s2)cc(C2CCN(C(=O)OCc3ccccc3)C2)n1 (stereo not drawn) [Benzyl 3-(6-((5-((2-chloro-6-methylphenyl)carbamoyl)thiazol-2-yl)amino)-2-methylpyrimidin-4-yl)pyrrolidine-1-carboxylate (5h)] | 0.022 | 0.285
Cc1nc(Nc2ncc(C(=O)Nc3c(C)cccc3Cl)s2)cc(N2CCN(C(=O)OCCCl)CC2)n1 [2-Chloroethyl 4-(6-((5-((2-chloro-6-methylphenyl)carbamoyl)thiazol-2-yl)amino)-2-methylpyrimidin-4-yl)-piperazine-1-carboxylate (3i)] | 0.00421 | 0.009
CCOC(=O)N1CCN(c2cc(Nc3ncc(C(=O)Nc4c(C)cccc4Cl)s3)nc(C)n2)CC1 [Ethyl 4-(6-((5-((2-chloro-6-methylphenyl)carbamoyl)thiazol-2-yl)amino)-2-methylpyrimidin-4-yl)-piperazine-1-carboxylate (3b)] | 0.00315 | 0.0114
Cc1nc(Nc2ncc(C(=O)Nc3c(C)cccc3Cl)s2)cc(N2CCN(C(=O)OCC(C)C)CC2)n1 [Isobutyl 4-(6-((5-((2-chloro-6-methylphenyl)carbamoyl)thiazol-2-yl)amino)-2-methylpyrimidin-4-yl)-piperazine-1-carboxylate (3f)] | 0.00675 | 0.0346
Cc1nc(Nc2ncc(C(=O)Nc3c(C)cccc3Cl)s2)cc(N2CCN(C(=O)OCc3ccccc3)CC2)n1 [Benzyl 4-(6-((5-((2-chloro-6-methylphenyl)carbamoyl)thiazol-2-yl)amino)-2-methylpyrimidin-4-yl)-piperazine-1-carboxylate (3h)] | 0.0226 | 0.133
Cc1nc(Nc2ncc(C(=O)Nc3c(C)cccc3Cl)s2)cc(C2CCN(C(=O)OC(C)C)C2)n1 (stereo not drawn) [Isopropyl 3-(6-((5-((2-chloro-6-methylphenyl)carbamoyl)thiazol-2-yl)amino)-2-methylpyrimidin-4-yl)pyrrolidine-1-carboxylate (5c)] | 0.00914 | 0.0721
COC(=O)N1CCN(c2cc(Nc3ncc(C(=O)Nc4c(C)cccc4Cl)s3)nc(C)n2)CC1 [Methyl 4-(6-((5-((2-chloro-6-methylphenyl)carbamoyl)thiazol-2-yl)amino)-2-methylpyrimidin-4-yl)-piperazine-1-carboxylate (3a)] | 0.00432 | 0.00676
CCC(=O)N1CCC(Nc2cc(Nc3ncc(C(=O)Nc4c(C)cccc4Cl)s3)nc(C)n2)C1 (stereo not drawn) [N-(2-chloro-6-methylphenyl)-2-((2-methyl-6-((1-propionylpyrrolidin-3-yl)amino)pyrimidin-4-yl)amino)thiazole-5-carboxamide (5l)] | 0.0179 | 0.0239
Cc1nc(Nc2ncc(C(=O)Nc3c(C)cccc3Cl)s2)cc(C2CCN(C(=O)OCC(C)C)C2)n1 (stereo not drawn) [Isobutyl 3-(6-((5-((2-chloro-6-methylphenyl)carbamoyl)thiazol-2-yl)amino)-2-methylpyrimidin-4-yl)pyrrolidine-1-carboxylate (5f)] | 0.0121 | 0.0854
C/C=C/C(=O)N1CCN(c2cc(Nc3ncc(C(=O)Nc4c(C)cccc4Cl)s3)nc(C)n2)CC1 [(E)-2-((6-(4-(but-2-enoyl)piperazin-1-yl)-2-methylpyrimidin-4-yl)amino)-N-(2-chloro-6-methylphenyl)thiazole-5-carboxamide (3m)] | 0.00425 | 0.00834
Cc1nc(Nc2ncc(C(=O)Nc3c(C)cccc3Cl)s2)cc(N2CCN(C(=O)OCCN3CCOCC3)CC2)n1 [2-Morpholinoethyl 4-(6-((5-((2-chloro-6-methylphenyl)carbamoyl)thiazol-2-yl)amino)-2-methylpyrimidin-4-yl)-piperazine-1-carboxylate (3j)] | 0.00226 | 0.00704
CCCCOC(=O)N1CCC(c2cc(Nc3ncc(C(=O)Nc4c(C)cccc4Cl)s3)nc(C)n2)C1 (stereo not drawn) [Butyl 3-(6-((5-((2-chloro-6-methylphenyl)carbamoyl)thiazol-2-yl)amino)-2-methylpyrimidin-4-yl)pyrrolidine-1-carboxylate (5e)] | 0.0153 | 0.123
COC(=O)N1CCC(c2cc(Nc3ncc(C(=O)Nc4c(C)cccc4Cl)s3)nc(C)n2)C1 (stereo not drawn) [Methyl 3-(6-((5-((2-chloro-6-methylphenyl)carbamoyl)thiazol-2-yl)amino)-2-methylpyrimidin-4-yl)pyrrolidine-1-carboxylate (5a)] | 0.00523 | 0.0329
Cc1nc(Nc2ncc(C(=O)Nc3c(C)cccc3Cl)s2)cc(N2CCN(C(=O)OCCN(C)C)CC2)n1 [2-(Dimethylamino)ethyl 4-(6-((5-((2-chloro-6-methylphenyl)carbamoyl)thiazol-2-yl)amino)-2-methylpyrimidin-4-yl)-piperazine-1-carboxylate (3k)] | 0.00256 | 0.00789
Cc1nc(Nc2ncc(C(=O)Nc3c(C)cccc3Cl)s2)cc(C2CCN(C(=O)Oc3ccccc3)C2)n1 (stereo not drawn) [Phenyl 3-(6-((5-((2-chloro-6-methylphenyl)carbamoyl)thiazol-2-yl)amino)-2-methylpyrimidin-4-yl)pyrrolidine-1-carboxylate (5g)] | 0.00751 | 0.0599
CCS(=O)(=O)N1CCC(Nc2cc(Nc3ncc(C(=O)Nc4c(C)cccc4Cl)s3)nc(C)n2)C1 (stereo not drawn) [N-(2-chloro-6-methylphenyl)-2-((6-((1-(ethylsulfonyl)pyrrolidin-3-yl)amino)-2-methylpyrimidin-4-yl)amino)thiazole-5-carboxamide (5j)] | 0.0485 | 0.156
Cc1nc(Nc2ncc(C(=O)Nc3c(C)cccc3Cl)s2)cc(N2CCN(C(=O)OC(C)C)CC2)n1 [Isopropyl 4-(6-((5-((2-chloro-6-methylphenyl)carbamoyl)thiazol-2-yl)amino)-2-methylpyrimidin-4-yl)-piperazine-1-carboxylate (3c)] | 0.00599 | 0.014
CCCCOC(=O)N1CCN(c2cc(Nc3ncc(C(=O)Nc4c(C)cccc4Cl)s3)nc(C)n2)CC1 [Butyl 4-(6-((5-((2-chloro-6-methylphenyl)carbamoyl)thiazol-2-yl)amino)-2-methylpyrimidin-4-yl)-piperazine-1-carboxylate (3e)] | 0.0032 | 0.00616
C=CCOC(=O)N1CCN(c2cc(Nc3ncc(C(=O)Nc4c(C)cccc4Cl)s3)nc(C)n2)CC1 [Allyl 4-(6-((5-((2-chloro-6-methylphenyl)carbamoyl)thiazol-2-yl)amino)-2-methylpyrimidin-4-yl)-piperazine-1-carboxylate (3d)] | 0.00669 | 0.0216
C=CC(=O)N1CCN(c2cc(Nc3ncc(C(=O)Nc4c(C)cccc4Cl)s3)nc(C)n2)CC1 [2-((6-(4-Acryloylpiperazin-1-yl)-2-methylpyrimidin-4-yl)amino)-N-(2-chloro-6-methylphenyl)-thiazole-5-carboxamide (3l)] | 0.00454 | 0.00629
Cc1nc(Nc2ncc(C(=O)Nc3c(C)cccc3Cl)s2)cc(NC2CCN(S(C)(=O)=O)C2)n1 (stereo not drawn) [N-(2-chloro-6-methylphenyl)-2-((2-methyl-6-((1-(methylsulfonyl)pyrrolidin-3-yl)amino)-pyrimidin-4-yl)amino)thiazole-5-carboxamide (5i)] | 0.0117 | 0.0383
CCOC(=O)N1CCC(c2cc(Nc3ncc(C(=O)Nc4c(C)cccc4Cl)s3)nc(C)n2)C1 (stereo not drawn) [Ethyl 3-(6-((5-((2-chloro-6-methylphenyl)carbamoyl)thiazol-2-yl)amino)-2-methylpyrimidin-4-yl)pyrrolidine-1-carboxylate (5b)] | 0.0096 | 0.0224
C=CC(=O)N1CCC(Nc2cc(Nc3ncc(C(=O)Nc4c(C)cccc4Cl)s3)nc(C)n2)C1 (stereo not drawn) [2-((6-((1-Acryloylpyrrolidin-3-yl)amino)-2-methylpyrimidin-4-yl)amino)-N-(2-chloro-6-methylphenyl)thiazole-5-carboxamide (5k)] | 0.00731 | 0.0344

Source: BindingDB's records for doi:10.1111/cbdd.12863 (Guangzhou Institutes of Biomedicine and Health, Chinese …, 2017)
